Article PMC3632285 (Journal of controlled release : official journal of the …, 2013)

Legend:
[1] = system: human airway epithelial cells (Calu-3); assay: MTT cytotoxicity study in Calu-3 cells; format: cell-based; settings: 0.1% w/v, positive control, cell line not specified in the sentence (Fig. 6A)
PAH patients = settings: dose of 30 or 40 mg; cited from earlier work
[2] = cited from earlier work
[3] = In-vitro drug release in dialysis cassettes, PBS pH 7.4, 37°C; format: physicochemical; settings: plain drug control in dialysis cassette, data not shown
in vivo = settings: male, Sprague-Dawley, rat, 10 mg/kg
[4] = various storage conditions; cited from earlier work
[5] = system: monocrotaline (MCT)-induced PAH rats; assay: Hemodynamic studies in monocrotaline; format: in vivo, Sprague-Dawley rats; settings: 3 mg/kg

Row | SMILES | Cell viability [1] [%] | Effect on MPAP in PAH patients (PAH patients) | pKa [2] | Drug released in the media [3] [%] | bioavailability (in vivo; Bioavailability (relative)) [%] | AUC(0-t) (in vivo; inhaled or intranasal) [ng·h/mL] | Cmax (in vivo; inhaled or intranasal) [ng/mL] | AUC(0-t) (in vivo; iv) [ng·h/mL] | Cmax (in vivo; iv) [ng/mL] | Time over which the drug is stable [4] | Decrease in MPAP (maximal) ([5]; intratracheal) [%] | Reduction in MSAP ([5]; intratracheal) [%] | Decrease in MPAP (maximal) ([5]; intravenous) [%] | Duration of pulmonary vasodilatory effects (15% reduction in MPAP as baseline) ([5]; intravenous) [min] | Reduction in MSAP ([5]; intravenous) [%] | Duration of pulmonary vasodilatory effects (15% reduction in MPAP as baseline) ([5]; pulmonary (intratracheal)) [min]
1 | CCCCCCCCCCCCOS(=O)(=O)[O-].[Na+] [SDS, sodium dodecyl sulfate] | 15 | – | – | – | – | – | – | – | – | – | – | – | – | – | – | –
2 | O=S(=O)(c1cccc2cnccc12)N1CCCNCC1 [fasudil] | – | effective in reducing MPAP | 9.727 | 100 | ~40 | 2.33 | 66.2 ± 13.6 | 5.71 | 298 ± 10 | ~ 24 weeks | 38.3±7.3 | 38.1±10.8 | 45.6±17.0 | 50.0 ± 10.4 | 45.6±8.4 | 60.0 ± 15.3
